Assay [1] deals with T1, DNA polymerase III PolC-type (Bacillus subtilis (strain 168), UniProt P13267). As to the kind of experiment: Inhibitory constant against DNA polymerases IIIC produced by Bacillus subtilis; (a).
Assay [2] has as its target T2, DNA polymerase III subunit alpha (Bacillus subtilis (strain 168), UniProt O34623).
T2 sequence (O34623 whole entry): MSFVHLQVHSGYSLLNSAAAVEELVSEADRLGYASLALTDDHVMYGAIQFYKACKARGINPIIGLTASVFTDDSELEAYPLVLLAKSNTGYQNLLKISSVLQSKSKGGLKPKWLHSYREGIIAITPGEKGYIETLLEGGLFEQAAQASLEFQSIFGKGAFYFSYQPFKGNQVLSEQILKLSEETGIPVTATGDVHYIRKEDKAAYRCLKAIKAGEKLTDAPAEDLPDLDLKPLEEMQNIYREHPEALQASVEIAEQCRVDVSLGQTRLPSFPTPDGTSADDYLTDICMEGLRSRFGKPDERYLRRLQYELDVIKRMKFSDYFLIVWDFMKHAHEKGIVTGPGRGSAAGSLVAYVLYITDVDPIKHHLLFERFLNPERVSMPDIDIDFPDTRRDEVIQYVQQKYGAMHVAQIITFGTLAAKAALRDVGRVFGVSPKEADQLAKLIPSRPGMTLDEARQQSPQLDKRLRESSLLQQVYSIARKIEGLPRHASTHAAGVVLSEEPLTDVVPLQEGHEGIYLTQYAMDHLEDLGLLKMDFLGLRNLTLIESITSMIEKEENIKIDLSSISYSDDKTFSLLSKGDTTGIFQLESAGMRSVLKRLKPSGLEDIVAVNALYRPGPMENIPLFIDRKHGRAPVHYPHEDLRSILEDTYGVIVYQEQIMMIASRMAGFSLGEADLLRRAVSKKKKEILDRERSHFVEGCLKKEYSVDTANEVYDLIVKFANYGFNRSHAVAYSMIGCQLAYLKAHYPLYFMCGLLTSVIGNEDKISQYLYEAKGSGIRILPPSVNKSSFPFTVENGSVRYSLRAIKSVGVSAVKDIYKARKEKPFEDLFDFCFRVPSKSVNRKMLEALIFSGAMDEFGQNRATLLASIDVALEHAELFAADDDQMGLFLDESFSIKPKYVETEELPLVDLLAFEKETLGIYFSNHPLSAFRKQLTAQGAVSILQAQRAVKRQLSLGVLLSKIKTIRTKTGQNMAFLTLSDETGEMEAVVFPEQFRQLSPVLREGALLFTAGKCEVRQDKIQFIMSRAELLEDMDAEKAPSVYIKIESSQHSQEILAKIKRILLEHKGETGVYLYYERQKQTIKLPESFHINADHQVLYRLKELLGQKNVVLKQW
As to the kind of experiment: Inhibition of DNA polymerases IIIE from Bacillus subtilis; (a); IN=<10% inhibition at highest concentration tested.

In assay [3] the target is T3, DNA polymerase III subunit alpha (Escherichia coli K-12, UniProt P10443). The experiment in a line: Inhibition against DNA polymerases IIIE from Escherichia coli; (a); IN=<10% inhibition at highest concentration tested.
For assay [4], the target named is T1, DNA polymerase III PolC-type. The experiment in a line: Inhibition of DNA polymerases IIIC produced by Bacillus subtilis; (a); IN=<10% inhibition at highest concentration tested.
The target of assay [5] is T3, DNA polymerase III subunit alpha. As to the kind of experiment: Inhibitory constant against DNA polymerases IIIE from Escherichia coli; (a).

T1 sequence (P13267 whole entry): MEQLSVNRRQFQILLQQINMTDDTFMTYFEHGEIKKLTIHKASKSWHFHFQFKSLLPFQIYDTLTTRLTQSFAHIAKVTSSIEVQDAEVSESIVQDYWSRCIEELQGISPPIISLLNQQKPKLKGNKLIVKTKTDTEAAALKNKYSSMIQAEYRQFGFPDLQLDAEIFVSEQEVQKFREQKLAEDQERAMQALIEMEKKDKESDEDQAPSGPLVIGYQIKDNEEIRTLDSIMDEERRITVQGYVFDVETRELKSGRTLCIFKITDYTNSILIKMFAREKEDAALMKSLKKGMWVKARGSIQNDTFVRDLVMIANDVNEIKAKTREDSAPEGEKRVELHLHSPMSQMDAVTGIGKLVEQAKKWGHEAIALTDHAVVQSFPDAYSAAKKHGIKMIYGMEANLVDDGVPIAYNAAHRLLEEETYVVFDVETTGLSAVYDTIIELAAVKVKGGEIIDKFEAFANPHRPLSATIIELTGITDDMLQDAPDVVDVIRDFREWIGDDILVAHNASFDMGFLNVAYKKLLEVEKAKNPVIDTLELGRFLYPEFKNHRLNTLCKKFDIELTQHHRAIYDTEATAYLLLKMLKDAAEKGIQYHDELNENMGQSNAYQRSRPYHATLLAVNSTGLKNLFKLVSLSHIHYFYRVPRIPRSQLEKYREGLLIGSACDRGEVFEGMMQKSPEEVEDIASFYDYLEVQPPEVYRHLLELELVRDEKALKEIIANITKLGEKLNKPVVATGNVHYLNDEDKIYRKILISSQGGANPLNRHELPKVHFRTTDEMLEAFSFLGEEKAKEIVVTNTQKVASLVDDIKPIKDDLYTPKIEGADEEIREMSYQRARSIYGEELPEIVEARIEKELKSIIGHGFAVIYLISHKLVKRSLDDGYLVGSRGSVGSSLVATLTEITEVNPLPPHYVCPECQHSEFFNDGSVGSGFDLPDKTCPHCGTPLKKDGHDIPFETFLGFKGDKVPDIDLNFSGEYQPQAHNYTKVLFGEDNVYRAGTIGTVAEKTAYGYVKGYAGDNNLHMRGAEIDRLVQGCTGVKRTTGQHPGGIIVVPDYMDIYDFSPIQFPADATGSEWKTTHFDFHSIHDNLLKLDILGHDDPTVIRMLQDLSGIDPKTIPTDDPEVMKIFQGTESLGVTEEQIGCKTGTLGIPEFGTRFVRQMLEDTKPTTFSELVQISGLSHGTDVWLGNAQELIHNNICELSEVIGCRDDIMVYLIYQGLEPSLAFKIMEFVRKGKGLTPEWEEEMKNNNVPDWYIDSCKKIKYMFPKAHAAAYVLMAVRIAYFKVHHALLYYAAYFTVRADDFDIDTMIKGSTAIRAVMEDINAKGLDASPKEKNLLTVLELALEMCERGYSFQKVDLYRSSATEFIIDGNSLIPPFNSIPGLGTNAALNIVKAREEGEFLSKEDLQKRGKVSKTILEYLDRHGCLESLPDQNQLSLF
T3 sequence (P10443 whole entry): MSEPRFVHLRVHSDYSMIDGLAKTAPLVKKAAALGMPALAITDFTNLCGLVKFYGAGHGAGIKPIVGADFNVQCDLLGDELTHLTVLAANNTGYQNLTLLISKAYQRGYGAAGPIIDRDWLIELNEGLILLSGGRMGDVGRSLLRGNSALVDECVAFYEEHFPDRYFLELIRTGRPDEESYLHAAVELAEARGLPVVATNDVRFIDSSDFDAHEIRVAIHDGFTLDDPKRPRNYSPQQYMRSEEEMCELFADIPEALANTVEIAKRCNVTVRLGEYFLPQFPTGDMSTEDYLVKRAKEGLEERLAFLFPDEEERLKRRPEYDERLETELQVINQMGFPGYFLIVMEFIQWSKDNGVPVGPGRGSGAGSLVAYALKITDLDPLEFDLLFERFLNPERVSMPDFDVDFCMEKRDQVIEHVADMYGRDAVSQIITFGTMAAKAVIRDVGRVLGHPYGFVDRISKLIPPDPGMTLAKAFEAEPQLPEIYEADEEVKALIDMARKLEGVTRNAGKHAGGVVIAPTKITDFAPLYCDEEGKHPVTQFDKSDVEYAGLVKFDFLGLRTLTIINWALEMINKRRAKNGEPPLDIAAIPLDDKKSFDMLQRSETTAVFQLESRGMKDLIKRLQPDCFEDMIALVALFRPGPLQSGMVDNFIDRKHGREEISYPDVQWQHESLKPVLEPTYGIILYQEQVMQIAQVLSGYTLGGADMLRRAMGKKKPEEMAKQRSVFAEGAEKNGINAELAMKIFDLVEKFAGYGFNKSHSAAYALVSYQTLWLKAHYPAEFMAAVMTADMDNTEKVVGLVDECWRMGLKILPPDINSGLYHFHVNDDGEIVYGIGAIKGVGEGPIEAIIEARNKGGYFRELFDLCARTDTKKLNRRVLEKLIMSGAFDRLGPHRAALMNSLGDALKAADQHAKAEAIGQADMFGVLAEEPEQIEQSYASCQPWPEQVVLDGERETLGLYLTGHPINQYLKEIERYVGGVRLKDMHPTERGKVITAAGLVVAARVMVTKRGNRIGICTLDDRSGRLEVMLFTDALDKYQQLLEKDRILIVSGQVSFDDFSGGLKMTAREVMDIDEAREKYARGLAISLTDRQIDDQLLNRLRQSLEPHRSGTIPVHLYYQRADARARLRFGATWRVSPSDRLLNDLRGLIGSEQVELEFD

Usually Ki stands for a dissociation constant, usually derived from enzyme kinetics or from competition with a known ligand. High values mean lower affinity, low ones higher affinity. `CC(C)C(=O)OCCCCCn1cnc2nc(NCc3ccc(Cl)c(Cl)c3)[nH]c(=O)c21` yielded a Ki in assay [1] of 370 nM.

Broadly, the inhibition is the drop in the measured response relative to a control, in per cent. Higher therefore signals strong suppression. Take `CCc1cc(Nc2nc(O)c3c(ncn3CCCCO)n2)ccc1C`: the inhibition in assay [2] and in assay [3] was below 10% each time. Take `CSCCCCCn1cnc2nc(NCc3ccc(Cl)c(Cl)c3)[nH]c(=O)c21`: the Ki in assay [1] was found to be 230 nM.

The compound `Oc1[nH]c(NCc2ccc(Cl)c(Cl)c2)nc2ncnc1-2` gave an inhibitory constant (Ki) in assay [1] of 720 nM. As to `CCc1cc(Nc2nc(O)c3ncn(CCCCO)c3n2)ccc1C`, the inhibition in assay [2], in assay [3] and in assay [4] was below 10% each time. As for `CC(=O)O[C@H](C)CCCCn1cnc2nc(NCc3ccc(Cl)c(Cl)c3)[nH]c(=O)c21`, affinity in assay [1] was put at a Ki of 80 nM. In turn, `CS(=O)(=O)CCCCCn1cnc2nc(NCc3ccc(Cl)c(Cl)c3)nc(O)c21` displayed a Ki in assay [1] of 280 nM. Take `O=c1[nH]c(NCc2ccc(Cl)c(Cl)c2)nc2ncn(CCOCCO)c12`: the affinity in assay [1] corresponds to a Ki of 370 nM. For the compound `O=c1cc(NCc2ccc(Cl)c(CCl)c2)[nH]c(=O)[nH]1`, the affinity in assay [1], expressed as Ki, was 420 nM. `OCCCCn1cnc2c(O)nc(NCc3ccc(Cl)c(Cl)c3)nc21`: the affinity in assay [1] corresponds to a Ki of 712000 nM. As for `CCOC(=O)CCCn1cnc2nc(NCc3ccc(Cl)c(Cl)c3)[nH]c(=O)c21`, the Ki in assay [1] was 150 nM. `CCOCCn1cnc2c(=O)[nH]c(NCc3ccc(Cl)c(Cl)c3)nc21` yielded an inhibitory constant (Ki) in assay [1] of 116000 nM. The same measure, in the same setting: in the case of `COCCCCCn1cnc2nc(NCc3ccc(Cl)c(Cl)c3)[nH]c(=O)c21` it was 70 nM; in that of `O=C(O)CCCn1cnc2nc(NCc3ccc(Cl)c(Cl)c3)nc(O)c21`, 170 nM; in that of `CCOC(=O)CCCn1cnc2c(O)nc(NCc3ccc(Cl)c(Cl)c3)nc21`, 825000 nM.

Turning to `CCOCCn1cnc2nc(NCc3ccc(Cl)c(Cl)c3)[nH]c(=O)c21`, the inhibition constant Ki in assay [1] is 330 nM. The same measure, in the same setting: under `C[C@@H](O)CCCCn1cnc2nc(NCc3ccc(Cl)c(Cl)c3)[nH]c(=O)c21` stands 52 nM; under `C[S+]([O-])CCCCCn1cnc2nc(NCc3ccc(Cl)c(Cl)c3)nc(O)c21` (stereo unspecified), 93 nM. Turning to `CCc1cc(Nc2cc(=O)[nH]c(=O)[nH]2)ccc1C`, the figures for the inhibitory constant (Ki) in assay [5] and in assay [1] were above 323000 nM and 310 nM, respectively. Consider `O=C(O)CCCn1cnc2c(=O)[nH]c(NCc3ccc(Cl)c(Cl)c3)nc21`, for which, in assay [1], the affinity corresponds to a Ki of 28000 nM.

In assay [1], `CCc1cc(Nc2nc(O)c3[nH]cnc3n2)ccc1C` registered a Ki of 2700 nM. The compound also gave an inhibition in assay [3] below 10%.

(Values after ChEMBL document CHEMBL1144295, “Active site directed inhibitors of replication-specific bacterial DNA polymerases” (Bioorg Med Chem Lett, 2005).)
